Measurements taken from US3996222A, “Piperazine derivatives” (CRC Compagnia de Ricerca Chimica, priority 1972, dated 1976).
Counter-ions that a name gives are not always drawn. Like-named read-outs stand apart in the source and are kept apart here.

Test: toxicity per os (LD50)
Assay type: in vivo
Description: Furthermore, their toxicities are extremely low in comparison with previously known cytostatic and cancer retardant pharmaceuticals.

| Compound | LD50 | LD50 (in vivo, po, read-out: LD50) |
| --- | --- | --- |
| Clc1ccc(C(c2ccccc2)N2CC[N+]3(CCOCC3)CC2)cc1.[Br-] (stereo not drawn) [X = Br, N^1-(4'-chlorobenzhydryl) -N^4-spiromorpholinopiperazinium bromide] | 308.5 mg/kg |  |
| Clc1ccc(C(c2ccccc2)N2CC[N+]3(CCOCC3)CC2)cc1 (stereo not drawn) [X = Cl, N^1-(4'-chlorobenzhydryl)-N^4-spiro-morpholino-piperazinium chloride-hydrochloride] |  | 316 mg/kg |
| Clc1ccc(C(c2ccccc2)N2CC[N+]3(CCOCC3)CC2)cc1 (stereo not drawn) [X = I, N^1-(4'-chlorobenzhydryl)-N^4-spiromorpholinopiperazinium iodide] | 276.7 mg/kg |  |
